Source: patent US8691977B2, “Certain chemical entities, compositions, and methods” (Neupharma, Inc., priority 2010, dated 2014)

Columns and labels:
[1] = test system: A549 cells; test: Inhibition of cell growth in tumor cells (MTT assay); assay type: cell-based; conditions: Homo sapiens, 72 h compound exposure
Method: Inhibition of cell growth by compounds was measured using MTT assay (Mosmann, T., Journal of Immunological Methods, 1983, 65, 55-63). Tumor cell lines were purchased from ATCC (American Type Culture Collection, Manassas, Va.). All cell lines were maintained in RPMI 1640 (Hyclone) supplemented with 10% fetal bovine serum (FBS, Hyclone), glutamine (2 mM, Hyclone), and antibiotics (penicillin 100 U/mL and streptomycin 50 μg/mL) at 37° C. in a humidified atmosphere of 5% CO2 in air. Taxol (positive control, Sigma) and compounds were dissolved in DMSO (Sigma), and the final concentration of DMSO in the medium was 1%. Tumor cells were plated in 96-well plates at densities from 4000 cells/well of a 96-well plate and allowed to adhere/grow for 24 h. They were then treated with various concentrations of drug for 72 h. 3-(4,5-Dimethylthiazol-2-yl)-2,5-diphenyltetrazolium bromide (MTT, Sigma) was used to determine the number of viable cells at the time of compound addition and the number of cells remaining after 72 h compound exposure. The number of cells remaining after 72 h was compared to the number of viable cells at the time of compound addition by measuring the absorbance at 570 nm, allowing for the calculation of growth inhibition.
All concentrations of compounds were tested in triplicate and controls were averaged over 4 wells. IC50 was calculated by plotting the concentration of compound vs the percentage of inhibition in treated wells using GraphPad Prism 5.

[2] = test system: nitric oxide production; conditions: Jin et al., J Nat Prod 65: 89 (2002); read-out: IC50, inhibition of nitric oxide production; cited from earlier work

Structure (SMILES) | IC50 [1] | IC50 [2]
CC1=C(O)C(=O)C=C2C1=CC=C1[C@@]2(C)CC[C@@]2(C)[C@@H]3C[C@](C)(CNC(N)=O)CC[C@]3(C)CC[C@]12C [1-(((2R,4aS,6aS,12bR,14aS,14bR)-10-hydroxy-2,4-a,6a,9,12b,14a-hexamethyl-11-oxo-1,2,3,4,4a, 5,6,6a,11,12b,13,14,14a,14b-tetradecahydropicen-2-yl)methyl)urea] | 737 nM | 
CC1=C(O)C(=O)C=C2C1=CC=C1[C@@]2(C)CC[C@@]2(C)[C@@H]3C[C@](C)(CNC(=O)CN(C)C)CC[C@]3(C)CC[C@]12C [2-(dimethylamino)-N-(((2R,4aS,6aS,12bR,14aS,14bR)-10-hydroxy-2,4a,6a,9,12b,14a-hexamethyl-11-oxo-1,2,3,4,4a,5,6,6a,11,12b,13,14,14a,14b-tetradecahydropicen-2-yl)methyl)acetamide] | 159 nM | 
CC1=C(O)C(=O)C=C2C1=CC=C1[C@@]2(C)CC[C@@]2(C)[C@@H]3C[C@](C)(CN4CCOCC4)CC[C@]3(C)CC[C@]12C [(6bS,8aS,11R,12aR,12bS,14aR)-3-hydroxy-4,6b,8a,11,12b,14a-hexamethyl-11-(morpholinomethyl)-7,8,8a,9,10,11,12,12a,12b,13,14,14a-dodecahydropicen-2(6bH)-one] | 523 nM | 
CC1=C(O)C(=O)C=C2C1=CC=C1[C@@]2(C)CC[C@@]2(C)[C@@H]3C[C@](C)(CN4CCCC4)CC[C@]3(C)CC[C@]12C [(6bS,8aS,11R,12aR,12bS,14aR)-3-hydroxy-4,6b,8a,11,12b,14a-hexamethyl-11-(pyrrolidin-1-ylmethyl)-7,8,8a,9,10,11,12,12a,12b,13,14,14a-dodecahydropicen-2(6bH)-one] | 498 nM | 
CC1=C(O)C(=O)C=C2C1=CC=C1[C@@]2(C)CC[C@@]2(C)[C@@H]3C[C@](C)(CO)CC[C@]3(C)CC[C@]12C [(6bS,8aS,11R,12aR,12bS,14aR)-3-hydroxy-11-(hydroxymethyl)-4,6b,8a,11,12b,14a-hexamethyl-7,8,8a,9,10,11,12,12a,12b,13,14,14a-dodecahydropicen-2(6bH)-one] | 624 nM | 
CC1=C(O)C(=O)C=C2C1=CC=C1[C@@]2(C)CC[C@@]2(C)[C@@H]3C[C@](C)(CN(C)C)CC[C@]3(C)CC[C@]12C [(6bS,8aS,11R,12aR,12bS,14aR)-11-((dimethylamino)methyl)-3-hydroxy-4,6b,8a,11,12b,14a-hexamethyl-7,8,8a,9,10,11,12,12a,12b,13,14,14a-dodecahydropicen-2(6bH)-one] | 285 nM | 
CC1=C(O)C(=O)C=C2C1=CC=C1[C@@]2(C)CC[C@@]2(C)[C@@H]3C[C@](C)(CN)CC[C@]3(C)CC[C@]12C [(6bS,8aS,11R,12aR,12bS,14aR)-11-(aminomethyl)-3-hydroxy-4,6b,8a,11,12b,14a-hexamethyl-7,8,8a,9,10,11,12,12a,12b,13,14,14a-dodecahydropicen-2(6bH)-one] | 841 nM | 
COC(=O)OC[C@]1(C)CC[C@]2(C)CC[C@]3(C)C4=CC=C5C(=CC(=O)C(O)=C5C)[C@]4(C)CC[C@@]3(C)[C@@H]2C1 [((2R,4aS,6aS,12bR,14aS,14bR)-10-hydroxy-2,4-a,6a,9,12b,14a-hexamethyl-11-oxo-1,2,3,4,4a,5,6,6a,11,12b,13,14,14a,14b-tetradecahydropicen-2-yl)methyl methyl carbonate] | 393 nM | 
CC1=C(O)C(=O)C=C2C1=CC=C1[C@@]2(C)CC[C@@]2(C)[C@@H]3C[C@](C)(CNC(=O)N4CCN(C)CC4)CC[C@]3(C)CC[C@]12C [N-(((2R,4aS,6aS,12bR,14aS,14bR)-10-hydroxy-2,4-a,6a,9,12b,14a-hexamethyl-11-oxo-1,2,3,4,4a,5,6,6a,11,12b,13,14,14a,14b-tetradecahydropicen-2-yl)methyl)-4-methylpiperazine-1-carboxamide] | 246 nM | 
CC1=C(O)C(=O)C=C2C1=CC=C1[C@@]2(C)CC[C@@]2(C)[C@@H]3C[C@](C)(CNC(=O)N4CCOCC4)CC[C@]3(C)CC[C@]12C [N-(((2R,4aS,6aS,12bR,14aS,14bR)-10-hydroxy-2,4-a,6a,9,12b,14a-hexamethyl-11-oxo-1,2,3,4,4a,5,6,6a,11,12b,13,14,14a,14b-tetradecahydropicen-2-yl)methyl)morpholine-4-carboxamide] | 358 nM | 
N=C(N)NN [aminoguanidine] |  | 16000 nM
